Read-outs that look alike come from different tables or passages of the source.

From patent US20230312587A1, “PTERIDINONE COMPOUNDS AND USES THEREOF” (Vertex Pharmaceutical Incorporated, priority 2018, published 2023) come the findings set out here.

In assay [1] the target is HEK293 membranes over-expressing WFS-1 (Homo sapiens (Human), UniProt O76024). Briefly: Radioligand displacement assay (tritiated Compound 136 probe). It is filed as binding. Particulars: displacement of tritiated Compound 136. The procedure, abridged:
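WFS-1-overexpressing HEK293 membranes were preincubated 10 min with compound, then tritiated probe was added for 90 min at room temperature. Bound probe was collected by filtration on PEI-pretreated GF/B filters, washed and scintillation-counted. IC50 came from a 3-parameter fit of bound probe vs compound concentration.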

In assay [2] the test system is β-catenin-TCF-mediated reporter transcription activity in Colo 205 cells. As to the kind of experiment: Colo 205 reporter assay (TCF/LEF luciferase). It is filed as cell-based. Particulars: Homo sapiens, COLO 205, 5 h, five hours after addition of compound. The procedure, abridged:
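Luciferase signal from a TCF/LEF-driven reporter, stably integrated in Colo 205 colon cancer cells, was measured 5 h after compound addition.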
For orientation: Reporter assays use an easily measured gene product as a stand-in for the process of interest.

In assay [3] the test system is HepG2 parental. Briefly: In vitro cell viability (CellTiter-Glo), HepG2 parental. Type of assay: cell-based. Particulars: Homo sapiens, 96 hours. The protocol:
HEK293 cells containing empty pCLPCx vector (HEK293 empty), HEK293 cells stably over-expression WFS1 (HEK293 WFS1), HepG2, and HepG2 cells where WFS1 was depleted via CRISPR/Cas9 (HepG2 WFS1 KO) cells were plated into 96-well black plates (Corning, product #3904) in 100 microliters of complete DMEM cell culture media [DMEM (Life Technologies, product #11960-051) media supplemented with 10% FBS (Hyclone, catalog #SH30071.03), antimycotic/antibiotic (Life Technologies, product #15240-062), and Glutamax (Life Technologies, product #35050-061)] at 1,000 (HEK293) or 5,000 (HepG2) cells per well. Cells were allowed to attach and grow overnight, after which compounds are added at various concentrations. Cell viability was assessed 96 hrs after compound addition with CellTiter-Glo reagent (Promega, catalog #G7570) according to manufacturer's protocol and measurement on a Pherastar luminescence plate reader (BMG Labtech).
To determine the effect of WFS1 depletion on compound mediated inhibition of cell viability, parental HepG2 cells and HepG2 cells where WFS1 was deleted by CRISPR/Cas9 were exposed to increasing concentrations of either Compound 136 or Compound 253 for 96 hours after which time viability was determined using Cell Titer Glo reagent (Promega). […] The IC50s for the viability of both the HepG2 parental and WFS1 knockout cells are summarized in Table 47: A<0.5 μM; 0.5 μM≤<2.0 μM; 2.0 μM≤C<10.0 μM; D≥[…].
On the technique in general: Cellular ATP, detected with luciferase, serves as a proxy for viable cell number.

Setting [4] is: Colo 205 TCF/LEF luciferase reporter, read-out: TCF reporter Colo205 IC50.
Setting [5] is: Colo 205 cells with stably transfected TCF/LEF luciferase reporter, read-out: TCF reporter Colo205.

HEK293 membranes over-expressing WFS-1, sequence (O76024 whole entry): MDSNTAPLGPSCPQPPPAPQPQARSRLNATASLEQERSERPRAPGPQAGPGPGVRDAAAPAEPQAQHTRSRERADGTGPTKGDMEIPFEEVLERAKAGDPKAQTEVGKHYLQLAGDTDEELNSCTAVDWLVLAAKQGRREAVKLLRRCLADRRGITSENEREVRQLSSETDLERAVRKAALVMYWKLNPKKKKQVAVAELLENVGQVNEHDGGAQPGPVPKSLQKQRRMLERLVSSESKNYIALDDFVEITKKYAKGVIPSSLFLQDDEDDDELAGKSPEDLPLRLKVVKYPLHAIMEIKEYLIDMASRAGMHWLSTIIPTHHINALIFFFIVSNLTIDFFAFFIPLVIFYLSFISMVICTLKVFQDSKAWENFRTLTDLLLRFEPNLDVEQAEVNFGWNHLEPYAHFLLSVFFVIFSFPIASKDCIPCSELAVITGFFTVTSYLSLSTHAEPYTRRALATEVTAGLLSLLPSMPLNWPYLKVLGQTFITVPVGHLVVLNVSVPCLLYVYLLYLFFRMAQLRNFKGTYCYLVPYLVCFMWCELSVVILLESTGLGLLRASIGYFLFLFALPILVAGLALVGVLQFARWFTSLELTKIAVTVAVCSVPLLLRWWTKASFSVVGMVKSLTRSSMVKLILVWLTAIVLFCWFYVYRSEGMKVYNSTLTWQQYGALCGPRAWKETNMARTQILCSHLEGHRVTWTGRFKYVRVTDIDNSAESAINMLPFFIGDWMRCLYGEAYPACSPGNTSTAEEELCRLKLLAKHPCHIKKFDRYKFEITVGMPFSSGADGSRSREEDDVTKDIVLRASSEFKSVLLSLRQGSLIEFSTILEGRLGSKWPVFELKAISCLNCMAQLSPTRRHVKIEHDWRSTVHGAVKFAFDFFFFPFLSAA

For the compound `Cc1nc(NCc2cnn([C@@H]3CCN(c4ccc(F)cc4)C3)c2)nc2c1NC(=O)[C@H](C)N2C` [Compound 170, (7S)-2-(((1-((R)-1-(4-fluorophenyl)pyrrolidin-3-yl)-1H-pyrazol-4-yl)methyl)amino)-4,7,8-trimethyl-7,8-dihydropteridin-6(5H)-one], the IC50 was 0.06 to 0.6 µM in assay [1], < 0.3 µM in assay [2] (setting [4]) and < 0.5 µM in assay [3] (read-out: HepG2 viability).
In the same order, the values of `Cc1nc(NCc2cnn(Cc3ccc(F)cc3)c2)nc2c1NC(=O)C1(CC1)N2` [Compound 222, 2′-(((1-(4-fluorobenzyl)-1H-pyrazol-4-yl)methyl)amino)-4′-methyl-5′,8′-dihydro-6′H-spiro[cyclopropane-1,7′-pteridin]-6′-one] are 0.6 to 3 µM, ≥ 5 µM and ≥ 10 µM.
The corresponding values for `CN1C(=O)C(C)(C)N(C)c2nc(NCc3cnn(Cc4cccnc4C(F)(F)F)c3)ncc21` [Compound 237, 5,7,7,8-Tetramethyl-2-(((1-((2-(trifluoromethyl)pyridin-3-yl)methyl)-1H-pyrazol-4-yl)methyl)amino)-7,8-dihydropteridin-6(5H)-one] are 0.06 to 0.6 µM, 0.3 to 1 µM and ≥ 10 µM.
In the case of `Cc1nc(N[C@H]2C[C@@H](Oc3cc(F)c(F)c(F)c3)C2)nc2c1NC(=O)[C@H](C)N2C` [Compound 247, (7S)-4,7,8-trimethyl-2-((cis-3-(3,4,5-trifluorophenoxy)cyclobutyl)amino)-7,8-dihydropteridin-6(5H)-one], the IC50 in assay [1] lay within 0.06 to 0.6 µM; in assay [2] (setting [4]), 1 to 5 µM; in assay [3] (read-out: HepG2 viability), 2 to 10 µM.
Regarding `Cc1nc(N[C@H]2C[C@H](Oc3cc(F)c(F)c(F)c3)C2)nc2c1N(C)C(=O)[C@H](C)N2C` [Compound 253, (7S)-4,5,7,8-tetramethyl-2-((trans-3-(3,4,5-trifluorophenoxy)cyclobutyl)amino)-7,8-dihydropteridin-6(5H)-one], the IC50 in assay [1] is < 0.06 µM; in assay [2] (setting [4]) it was < 0.3 µM; in assay [3] (read-out: HepG2 viability) it was 0.5 to 2 µM; in assay [3] (cell viability, Cell Titer Glo, read-out: IC50), 0.64 µM; in assay [3] (cell viability, read-out: IC50 class), 0.5 to 2 µM.
Take `Cc1nc(N[C@H]2C[C@@H](COc3cc(F)c(F)c(F)c3)C2)nc2c1NC(=O)[C@H](C)N2C` [Compound 257, (7S)-4,7,8-Trimethyl-2-((cis-3-((3,4,5-trifluorophenoxy)methyl)cyclobutyl)-amino)-7,8-dihydropteridin-6(5H)-one]: the IC50 in assay [1] is 0.06 to 0.6 µM; in assay [2] (setting [4]) it was < 0.3 µM; in assay [3] (read-out: HepG2 viability), 2 to 10 µM.
Turning to `Cc1nc(N[C@H]2C[C@H](COc3cc(F)c(F)c(F)c3)C2)nc2c1NC(=O)[C@H](C)N2C` [Compound 258, (7S)-4,7,8-trimethyl-2-((trans-3-((3,4,5-trifluorophenoxy)methyl)-cyclobutyl)amino)-7,8-dihydropteridin-6(5H)-one], the IC50 in assay [1] was 0.06 to 0.6 µM; in assay [2] (setting [4]) it was 1 to 5 µM; in assay [3] (read-out: HepG2 viability), 2 to 10 µM.
With `Cc1nc(N[C@@H]2CC[C@@H](Oc3cc(F)c(F)c(F)c3)C2)nc2c1N(C)C(=O)[C@H](C)N2C` [Compound 272, (S)-4,5,7,8-tetramethyl-2-(((1R,3R)-3-(3,4,5-trifluorophenoxy)cyclopentyl)amino)-7,8-dihydropteridin-6(5H)-one], the IC50 in assay [1] was 0.06 to 0.6 µM; in assay [2] (setting [4]) it was < 0.3 µM; in assay [3] (read-out: HepG2 viability), < 0.5 µM.
As to `Cc1nc(N[C@H]2C[C@@H](Sc3ccc(F)cc3)C2)nc2c1N(C)C(=O)[C@H](C)N2C` [Compound 305, (7S)-2-((cis-3-((4-fluorophenyl)thio)cyclobutyl)amino)-4,5,7,8-tetramethyl-7,8-dihydropteridin-6(5H)-one], the results for the IC50 in assay [1], in assay [2] (setting [4]) and in assay [3] (read-out: HepG2 viability) were 0.06 to 0.6 µM, 0.3 to 1 µM and ≥ 10 µM, respectively.
Take `Cc1nc(N[C@H]2C[C@H](Sc3ccc(F)cc3)C2)nc2c1N(C)C(=O)[C@H](C)N2C` [Compound 307, (7S)-2-((trans-3-((4-fluorophenyl)thio)cyclobutyl)amino)-4,5,7,8-tetramethyl-7,8-dihydropteridin-6(5H)-one]: the IC50 lay in the range of 0.06 to 0.6 µM in assay [1], 1 to 5 µM in assay [2] (setting [4]) and 2 to 10 µM in assay [3] (read-out: HepG2 viability).
Regarding `Cc1nc(N[C@H]2C[C@H](Oc3ccnc(C(F)(F)F)c3)C2)nc2c1NC(=O)[C@H](C)N2C` [Compound 335, (7S)-4,7,8-trimethyl-2-((trans-3-((2-(trifluoromethyl)pyridin-4-yl)oxy)cyclobutyl)amino)-7,8-dihydropteridin-6(5H)-one], the results for the IC50 in assay [1], in assay [2] (setting [4]) and in assay [3] (read-out: HepG2 viability) were < 0.06 µM, < 0.3 µM and 2 to 10 µM, respectively.
The corresponding values for `Cc1nc(N[C@H]2C[C@@H](COc3ccc(C(F)(F)F)cn3)C2)nc2c1NC(=O)[C@H](C)N2C` [Compound 356, (7S)-4,7,8-trimethyl-2-((cis-3-(((5-(trifluoromethyl)pyridin-2-yl)oxy)methyl)cyclobutyl)amino)-7,8-dihydropteridin-6(5H)-one] are 0.6 to 3 µM, 0.3 to 1 µM and ≥ 10 µM.
In the same order, the values of `Cc1nc(N[C@H]2C[C@H](Oc3ccc(F)nc3)C2)nc2c1NC(=O)[C@H](C)N2C` [Compound 357, (7S)-2-((trans-3-((6-fluoropyridin-3-yl)oxy)cyclobutyl)amino)-4,7,8-trimethyl-7,8-dihydropteridin-6(5H)-one] are 0.06 to 0.6 µM, 1 to 5 µM and 2 to 10 µM.
In the same order, the values of `Cc1nc(NCc2cnn(Cc3ccc(C(F)(F)F)nc3)c2)nc2c1NC(=O)[C@H](C(C)C)N2C` [Compound 383, (7S)-7-isopropyl-4,8-dimethyl-2-(((1-((6-(trifluoromethyl)pyridin-3-yl)methyl)-1H-pyrazol-4-yl)methyl)amino)-7,8-dihydropteridin-6(5H)-one] are < 0.06 µM, < 0.3 µM and < 0.5 µM.
For `Cc1nc(NCc2cnn(Cc3ccc(F)nc3)c2)nc2c1NC(=O)[C@H](C(C)C)N2C` [Compound 384, (7S)-2-(((1-((6-fluoropyridin-3-yl)methyl)-1H-pyrazol-4-yl)methyl)amino)-7-isopropyl-4,8-dimethyl-7,8-dihydropteridin-6(5H)-one], the IC50 in assay [1] is 0.06 to 0.6 µM; in assay [2] (setting [4]), < 0.3 µM; in assay [3] (read-out: HepG2 viability), < 0.5 µM.
As to `Cc1nc(NCc2cnn(Cc3ccc(C(F)(F)F)nc3)c2)nc2c1NC(=O)C1(CCC1)N2C` [Compound 398, 4′,8′-dimethyl-2′-(((1-((6-(trifluoromethyl)pyridin-3-yl)methyl)-1H-pyrazol-4-yl)methyl)amino)-5′,8′-dihydro-6′H-spiro[cyclobutane-1,7′-pteridin]-6′-one], the IC50 in assay [1] was 0.06 to 0.6 µM; in assay [2] (setting [5]), < 0.3 µM; in assay [3] (read-out: HepG2 viability) it was 0.5 to 2 µM.
Regarding `Cc1nc(N(C)Cc2cnn(Cc3ccc(C(F)(F)F)nc3)c2)nc2c1NC(=O)[C@H](C)N2C` [Compound 403, (7S)-4,7,8-trimethyl-2-(methyl((1-((6-(trifluoromethyl)pyridin-3-yl)methyl)-1H-pyrazol-4-yl)methyl)amino)-7,8-dihydropteridin-6(5H)-one], the IC50 is ≥ 3 µM in assay [1], ≥ 5 µM in assay [2] (setting [5]) and ≥ 10 µM in assay [3] (read-out: HepG2 viability).
